Data published in patent US10335365B2, “Bladder cancer specific ligand peptides” (The Regents of the University of California, priority 2009, dated 2019).
Entries after “also recorded” stand apart in the source; their conditions may differ. Positions of bridges follow the written chain, without caps; N, C: chain ends. Non-standard residues stand in square brackets, D forms with d. No end group written: not given here.

Tests used:
[1] = system: cancer cells from canine bladder TCC clinical specimen; assay: Binding to canine bladder TCC clinical specimen cells
[2] = system: vascular endothelial cells; assay: Binding to vascular endothelial cells
[3] = system: cells from the normal specimen of the same bladder; assay: Whole cell bead binding assay, cells from normal specimen of the same bladder; design: species or system human; conditions: beads coated with PLZ4; same cystectomy specimen
Procedure: The beads were washed extensively with double-distilled water and phosphate-buffered saline (PBS) before screening. Bladder cancer cells and normal urothelial cells were detached from culture dishes with trypsin/EDTA or a Detach kit (PromoCell, Heidelberg, Germany), washed with their corresponding culture medium, resuspended at 10^6 cells/ml and incubated with OBOC beads in Petri dishes in a humidified CO2 incubator at 37° C. with shaking (60 rpm). Beads bound by cells appeared as rosettes with a central bead covered by a layer(s) of cells under a microscope. The positive beads were picked with a pipette under inverted microscope, treated with Quanidine HCl (8M, 20 min) to remove cells and proteins on beads surface, and underwent a second round of incubation with the same cells to confirm the binding. Only those beads with cell bindings at both rounds were sent for the amino acid sequencing as previously described (Peng, et al., Nat Chem Biol, (2006) 2: 381-389).
The cell surface molecules on established cell lines in culture may not be the same as those molecules on primary bladder cancer cells. It was assessed if PLZ4 could bind to bladder cancer cells from patients. Beads coated with PLZ4 could bind to primary bladder cancer cells from patients (FIGS. 3A and B). […] In one patient, both normal tissue and bladder cancer tissue from the same cystectomy specimen were available.

[4] = system: peripheral blood mononuclear cells (PBMC); assay: Whole cell bead binding assay, PBMC; design: species or system human; conditions: peptide on beads
Procedure: Four bladder cancer cell lines including 5637 (HTB-9), SCaBER, TCCSUP (HTB-5), and T24 (HTB-4) were purchased from the American Type Culture Collection (Manassas, Va.). The isolation, characterization and maintenance of normal urothelial cells was previously described in detail (Bagai, et al., J Biol Chem, (2002) 277: 23828-23837). Normal peripheral blood mononuclear cells were prepared by using the Ficoll-Paque gradient method from peripheral blood of healthy donors. Bladder cancer tissue obtained from cystectomy was cut into pieces, digested with collagenase at 37° C. for 1-2 hours per the manufacturer's protocol, and filtered through a 40-μm strainer to make single cell suspension. Tumor cells were then isolated with Ficoll-Paque gradient method (800 g, 30 min at 4° C.). Informed consent was obtained from each patient or healthy donor before specimens were collected.
The beads were washed extensively with double-distilled water and phosphate-buffered saline (PBS) before screening. Bladder cancer cells and normal urothelial cells were detached from culture dishes with trypsin/EDTA or a Detach kit (PromoCell, Heidelberg, Germany), washed with their corresponding culture medium, resuspended at 10^6 cells/ml and incubated with OBOC beads in Petri dishes in a humidified CO2 incubator at 37° C. with shaking (60 rpm). […]

cQDGRMGFc ([dC]QDGRMGF[dC]; disulfide 1-9 (inferred)) [PLZ4, bladder cancer-specific ligand peptide]
binding to primary canine bladder cancer cells from a clinical specimen [1]: could bind to primary canine bladder cancer cells; also recorded: could bind to cancer cells from one canine bladder TCC clinical specimen | binding to vascular endothelial cells [2]: did not bind | binding to cells from the normal specimen of the same bladder [3]: not to the cells from the normal specimen | binding to peripheral blood mononuclear cells [4]: did not bind
